For test [1], the target named is T1, Short transient receptor potential channel 4 (Mus musculus, UniProt Q9QUQ5).
T1 sequence (Q9QUQ5 whole entry): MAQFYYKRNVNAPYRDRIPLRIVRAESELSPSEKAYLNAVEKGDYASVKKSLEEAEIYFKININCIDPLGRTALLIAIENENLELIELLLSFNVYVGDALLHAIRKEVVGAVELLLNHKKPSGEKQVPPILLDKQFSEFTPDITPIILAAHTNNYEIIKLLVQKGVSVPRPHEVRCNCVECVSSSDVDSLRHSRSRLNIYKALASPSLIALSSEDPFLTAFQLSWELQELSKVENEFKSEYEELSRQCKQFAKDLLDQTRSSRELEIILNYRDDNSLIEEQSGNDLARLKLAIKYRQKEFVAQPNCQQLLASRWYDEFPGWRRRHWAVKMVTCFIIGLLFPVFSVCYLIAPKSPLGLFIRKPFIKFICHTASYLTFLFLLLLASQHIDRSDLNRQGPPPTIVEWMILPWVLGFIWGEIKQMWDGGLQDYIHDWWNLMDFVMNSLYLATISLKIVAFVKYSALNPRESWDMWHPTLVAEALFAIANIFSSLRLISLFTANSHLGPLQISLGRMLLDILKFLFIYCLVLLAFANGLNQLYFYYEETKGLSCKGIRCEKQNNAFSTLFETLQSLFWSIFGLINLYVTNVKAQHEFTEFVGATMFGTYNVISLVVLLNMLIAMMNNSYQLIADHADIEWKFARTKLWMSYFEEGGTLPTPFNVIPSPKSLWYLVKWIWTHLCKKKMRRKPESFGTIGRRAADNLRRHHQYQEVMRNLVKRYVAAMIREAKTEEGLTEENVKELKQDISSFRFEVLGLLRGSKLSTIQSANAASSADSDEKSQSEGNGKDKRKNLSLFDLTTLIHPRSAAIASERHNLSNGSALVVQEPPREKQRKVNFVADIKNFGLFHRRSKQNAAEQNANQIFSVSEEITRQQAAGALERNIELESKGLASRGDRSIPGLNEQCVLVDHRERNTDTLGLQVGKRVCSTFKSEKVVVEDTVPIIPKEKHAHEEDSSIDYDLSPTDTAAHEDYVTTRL
Description: calcium entry via TRPC4 opening agents – cell-based, HEK293 TRPC4/mu-opioid, Fluo-4 calcium, dose response (AID 434937). The test is classed as functional.

The target in the next test is Troponin, cardiac muscle (Homo sapiens, UniProt P19429+P45379+P63316). The test is described as follows: Fluorescence-based biochemical high throughput dose response assay for activators of the calcium sensitivity of cardiac Regulated Thin Filaments (RTF). [Related pubchem assays (depositor defined):AID493008, AID493018, AID504382, AID504383]. The test is classed as protein-complex assay.

The next test relates to H4. The test is described as follows: Luminescence Cell-Based Dose Response HTS to Identify Activators of 5'UTR Stem-Loop Driven Prion Protein mRNA Translation in H4 Neuroglioblastoma Cells. [Related pubchem assays: 1829 (Project Summary), 1814 (Primary HTS)]. The test is classed as functional. Conditions: Homo sapiens.
For test [2], the system named is HEK293. Description: cells. It counts as functional, cell-based. The note with it: Homo sapiens.
In test [3] the test system is HEK293. Description: cells. It counts as functional, cell-based. The note with it: Homo sapiens. This is another data set of the same source.
Test [4] addresses Nucleotide-binding oligomerization domain-containing protein 2 (Homo sapiens, UniProt Q9HC29). Description: inhibition of NOD2-driven NF-kB reporter – cell-based, luminescence, uHTS, HEK293 (AID 1566). The test is classed as functional.
For test [5], the system named is HEK293. Description: NOD2 signaling inhibitors in MDP-stimulated cells, cell-based, uHTS, luminescence (AID 2001). Conditions: Homo sapiens. It counts as functional.
The target in test [6] is T2, Heat shock factor protein 1 (Mus musculus, UniProt P38532).
T2 sequence (P38532 whole entry): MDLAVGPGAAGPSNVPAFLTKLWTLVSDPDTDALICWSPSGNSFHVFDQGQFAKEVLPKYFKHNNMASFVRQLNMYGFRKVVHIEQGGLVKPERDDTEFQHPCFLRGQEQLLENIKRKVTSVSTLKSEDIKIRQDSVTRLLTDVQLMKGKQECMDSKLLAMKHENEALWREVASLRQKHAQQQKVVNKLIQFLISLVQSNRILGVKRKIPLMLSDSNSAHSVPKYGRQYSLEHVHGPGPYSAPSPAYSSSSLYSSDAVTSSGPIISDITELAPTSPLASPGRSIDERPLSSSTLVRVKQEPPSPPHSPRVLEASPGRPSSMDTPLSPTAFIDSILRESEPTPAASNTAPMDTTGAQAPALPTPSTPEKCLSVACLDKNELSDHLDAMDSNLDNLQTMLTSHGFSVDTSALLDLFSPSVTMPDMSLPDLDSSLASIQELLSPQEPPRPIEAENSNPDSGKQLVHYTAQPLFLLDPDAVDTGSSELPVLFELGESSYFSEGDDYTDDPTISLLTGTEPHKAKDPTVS
The test is described as follows: decrease of HSF1-responsive luciferase luminescence – cell-based, NIH3T3, dose retest, confirmation (AID 2382).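 Also: NIH3T3 fibroblasts with HSF1-driven luciferase reporter stressed by proteasome inhibitor MG132; luminescence from HSF1-driven luciferase expression after 8 hours of MG132 stress.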 It counts as functional.

Test [7] concerns HEK293. The test is described as follows: cells. It counts as functional, cell-based. Conditions: Homo sapiens. The source holds these as a separate data set.
In test [8] the test system is HEK293. Description: inhibition of NOD1-driven NF-kB reporter – cell-based, luminescence, uHTS, primary screen (AID 1578). The test is classed as functional. The note with it: Homo sapiens.
The target of test [9] is T3, Long-chain-fatty-acid--AMP ligase FadD28 (Mycobacterium tuberculosis, UniProt P9WQ59).
T3 sequence (P9WQ59 whole entry): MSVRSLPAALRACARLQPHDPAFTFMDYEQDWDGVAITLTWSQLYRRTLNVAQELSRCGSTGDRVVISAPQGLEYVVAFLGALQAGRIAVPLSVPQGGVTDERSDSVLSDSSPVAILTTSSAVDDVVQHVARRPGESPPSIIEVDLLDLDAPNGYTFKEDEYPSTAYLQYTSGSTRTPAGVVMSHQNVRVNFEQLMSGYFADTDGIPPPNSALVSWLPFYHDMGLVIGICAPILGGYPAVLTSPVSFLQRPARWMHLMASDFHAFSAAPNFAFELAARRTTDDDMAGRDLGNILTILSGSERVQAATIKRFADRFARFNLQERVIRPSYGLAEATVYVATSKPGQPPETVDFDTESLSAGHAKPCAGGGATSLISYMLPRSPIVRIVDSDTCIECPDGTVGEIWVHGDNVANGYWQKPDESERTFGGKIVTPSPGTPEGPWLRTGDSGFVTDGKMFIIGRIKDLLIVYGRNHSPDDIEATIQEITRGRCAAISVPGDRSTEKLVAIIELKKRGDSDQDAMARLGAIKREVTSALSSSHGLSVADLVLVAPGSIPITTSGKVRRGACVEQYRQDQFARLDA
The test is described as follows: Fluorescence polarization aasay to screen for inhibitors that compete for the binding of FadD28 to a bisubstrate Measured in Biochemical System Using Plate Reader - 2147-01_Inhibitor_Dose_CherryPick_Activity. The test is classed as functional, Mycobacterium tuberculosis H37Rv. On the technique in general: Polarisation of emitted light reports the rotation of a fluorescent probe.

The next test has as its target T4, Caspase-6 (Homo sapiens, UniProt P55212).
T4 sequence (P55212 whole entry): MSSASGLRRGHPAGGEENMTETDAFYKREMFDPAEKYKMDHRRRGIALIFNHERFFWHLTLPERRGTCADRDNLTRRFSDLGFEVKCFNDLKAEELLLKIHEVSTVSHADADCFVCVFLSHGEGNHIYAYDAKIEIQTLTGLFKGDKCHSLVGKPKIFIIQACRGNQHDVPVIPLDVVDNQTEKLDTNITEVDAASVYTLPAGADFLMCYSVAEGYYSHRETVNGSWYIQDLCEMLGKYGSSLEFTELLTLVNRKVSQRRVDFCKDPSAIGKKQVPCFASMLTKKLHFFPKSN
Description: inhibition of CASP6 peptide cleavage – biochemical, VEID-R110 fluorescence, cherry-pick, dose response (AID 720632).

The target of test [10] is DNA dC->dU-editing enzyme APOBEC-3A (Homo sapiens, UniProt P31941). The test is described as follows: Dose Response confirmation of small molecule APOBEC3A DNA Deaminase Inhibitors via a fluorescence-based single-stranded DNA deaminase assay. [Related pubchem assays (depositor defined):AID493011, AID493024]. It counts as functional.
Test [11] has as its target DNA dC->dU-editing enzyme APOBEC-3G (Homo sapiens, UniProt Q9HC16). It counts as functional.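 Also: Dose-response counterscreen measuring inhibition of APOBEC3G DNA deaminase activity, run while confirming APOBEC3A inhibitors.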
The next test concerns the target Genome polyprotein (dengue virus type 2, UniProt P29990). Description: flavivirus cap methylation enzyme inhibition – biochemical, confirmation dose response, primary screen (AID 588689). The test is classed as functional.
Another test concerns Streptococcus. Description: GAS UMAA2166 growth inhibition – luminescence, BacTiterGlo, counter-screen for streptokinase expression inhibitor project, dose response (AID 1915).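 Also: potency for reduction of bacterial viability or growth.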 It counts as functional, organism-based. In general terms: Counterscreens check selectivity or assay interference.
The test system of test [12] is Streptococcus sp. 'group A'. Description: Streptococcus pyogenes SK(-)GAS viability under kanamycin – luminescence, BacTiterGlo, confirmation, counter-screen for streptokinase expression inhibitor project, dose response (AID 1900). It counts as functional, organism-based.
A short description of test [13]: THP-1 cell cytotoxicity, dose response, cytotoxicity control for non-replicating M. tuberculosis project (AID 489025). The test is classed as functional.
The nature of the next test: cells. It counts as functional.
Test [14] is described as follows: Vero E6 cell cytotoxicity, dose response, cytotoxicity control for non-replicating M. tuberculosis project, secondary assay (AID 492998). The test is classed as functional, VeroE6. The note with it: Vero C1008.
Test [15] relates to Vero. The test is described as follows: cells. It counts as functional. The note with it: Chlorocebus sabaeus.
For test [16], the system named is Vero. The test is described as follows: cells. The test is classed as functional, cell-based. Conditions: Chlorocebus sabaeus.
The next test deals with Beta-galactosidase (Escherichia coli, UniProt Q8VNN2). Description: detection-enzyme interference by beta-gal modulators – biochemical, E. coli enzyme, set 3, artefact control for CCR6 antagonist project, dose response (AID 504712). The test is classed as functional.
Test [17] is described as follows: NIH3T3 cell viability loss – ATP luminescence, mouse fibroblasts, counter-screen, dose response (AID 2010).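 Also: cells exposed to compound for about 90 hours before reading.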 It counts as functional, cell-based.
Test [18] can be described thus: Trypanosoma cruzi growth suppression in host cells – NIH3T3 host cells, beta-gal luminescence, confirmation (AID 2044).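 Also: intracellular parasites grown in NIH/3T3 mouse fibroblasts as host cells; luminescent beta-galactosidase reporter signal from transgenic T. cruzi replicating inside host cells; inhibitors lower the luminescence signal.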 It counts as functional, cell-based.

Structures are written as SMILES. Calls of active or inactive are those of the source. Some results are limits rather than exact numbers.

Broadly, the EC50 is the concentration that produces a half-maximal response. As a reminder, the IC50 is the point on the concentration scale where inhibition reaches its midpoint. A word on the AC50: it is the midpoint of the concentration-response curve, whichever way the signal moves. The CC50 is the concentration at which the toxic effect on the cells reaches its halfway point.

For the molecule `CCN1CCN(c2ccc(S(=O)(=O)N3CCCCC3)cc2NC(=O)C(C)Oc2ccc(F)cc2)CC1` (configuration not stated), in test [1], the concentration for a half-maximal effect (EC50) is 10.6 µM (active).
Regarding `CC(COC(=O)c1ccccc1)(COC(=O)c1ccccc1)/[N+]([O-])=C/c1ccccc1`, at Troponin, cardiac muscle, the EC50 was > 71.5 µM (inactive).
Consider `CCN1C(=O)/C(=C/N2CCc3ccccc32)SC1=S`, for which the concentration for a half-maximal effect (EC50) in the test on H4 is 4.21 µM (active); on Troponin, cardiac muscle, 5.4 µM (active).
As for `O=C(Nc1ccncc1)c1c(F)cccc1F`, the IC50 in the test with HEK293 [2] was > 20 µM (inactive); in the test with HEK293 [3], > 20 µM (inactive); in the test with HEK293 [5], 4.33 µM (active); in the test with HEK293 [7] it was 3.91 µM (active). In addition, the EC50 in test [4] is 4.55 µM (active); in test [6] it was 24.1 µM (active); in the test with HEK293 [8] it was 9.17 µM (active).
Take `COc1ccc(-c2cc(C(=O)NCC(c3ccccc3)N(C)C)c3ccccc3n2)cc1OC` (configuration not stated): in test [1], the 50% effective concentration (EC50) was 10.6 µM (active).
`O=C(CCSc1ccccc1)N1CCN(C(=O)c2ccco2)CC1`: the EC50 on Troponin, cardiac muscle was > 71.5 µM (inactive).
As to `C=CCOc1ccc(C(c2c(C(=O)O)[nH]c3ccccc23)c2c(C(=O)O)[nH]c3ccccc23)cc1`, the AC50 in test [9] is 12 µM (active); on Caspase-6, 14.2 µM (active). Further, the concentration for half-maximal inhibition (IC50) is 21.5 µM (active) in test [10], 28.8 µM (active) in [11] and 22 µM (active) at Genome polyprotein.
Turning to `COc1ccc(Cl)cc1/C=C/c1ccc2cccc(O)c2n1`, the IC50 is > 20 µM (inactive) in the test on HEK293 [2], > 20 µM (inactive) in the test on HEK293 [3], 4.73 µM (inactive) in the test on HEK293 [5] and 14 µM (active) in the test with HEK293 [7]. Also, the EC50 was 3.58 µM (active) with Streptococcus, > 20 µM (inactive) in [4], 5.5 µM (active) with HEK293 [8] and 0.786 µM (active) in [12].
Take `c1ccc(Nc2nc(Nc3ccccc3)nc(N3CCNCC3)n2)cc1`: the CC50 in test [13] was 23 µM (active); in [14], > 20 µM (active); with Vero [15], 22.6 µM (active). The concentration for a half-maximal effect (EC50) in test [1] was 3.35 µM (active). Besides, the IC50 in the test “cells” was 26.5 µM (active); with Vero [16], > 25 µM (active).
As for `O=C1c2cccc3c([N+](=O)[O-])ccc(c23)C(=O)N1Cc1cccnc1`, the 50% inhibitory concentration (IC50) at Beta-galactosidase was 16.8 µM (active). Moreover, the EC50 in test [17] is 9.5 µM (active); in test [18], 3.67 µM (active).
Consider `Cc1ccc(CNC(=O)CCNC(=O)c2ccc([N+](=O)[O-])cc2)cc1`, for which the IC50 in test [10] is 6.67 µM (active); in [11] it was 10.9 µM (active).

(Values after ChEMBL document CHEMBL1201862, “PubChem BioAssay data set” (2004).)
